Experimental data from PubChem BioAssay (NCI).
Values joined by “and” are separate entries in the source; they are usually repeats but may differ in a detail not shown here. Identical values can stand only once.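 All cell lines were grown in 96-well plates and treated with compound for 48 hours. At the GI50, growth is halved. At the TGI there is no net growth.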

Tests used:
Assay in all cases: inhibition of tumour cell growth, NCI panel, 48 h
[1] = test system: NCI-H23 lung
[2] = test system: HOP-62 NSCLC
[3] = test system: OVCAR-4 ovarian
[4] = test system: MCF7 breast
[5] = test system: IGROV1 ovarian
[6] = test system: TK-10 renal
[7] = test system: HOP-92 NSCLC
[8] = test system: LOX IMVI melanoma
[9] = test system: OVCAR-5 ovarian
[10] = test system: MALME-3M melanoma

SMILES | GI50 [1] | TGI [1] | GI50 [2] | TGI [2] | GI50 [3] | TGI [3] | GI50 [4] | TGI [4] | GI50 [5] | TGI [5] | GI50 [6] | TGI [6] | GI50 [7] | TGI [7] | GI50 [8] | TGI [8] | GI50 [9] | TGI [9] | GI50 [10] | TGI [10]
CC(C)C[C@H](NC(=O)[C@@H](O)[C@H](N)Cc1ccc([N+](=O)[O-])cc1)C(=O)O | > 25 µM | > 25 µM | > 25 µM | > 25 µM | > 25 µM | > 25 µM | > 25 µM | > 25 µM | > 25 µM | > 25 µM | > 25 µM | > 25 µM | > 25 µM | > 25 µM | > 25 µM | > 25 µM | > 25 µM | > 25 µM | > 25 µM | > 25 µM
Nc1n[nH]c2cccc(C#Cc3cccc(C(=O)Nc4cc(CN5CCOCC5)cc(C(F)(F)F)c4)c3)c12 | 3.56 µM | 18.8 µM | 4.5 µM | 18.1 µM | 5.8 µM | 23.1 µM | 3.28 µM | 15.6 µM | 3.23 µM | 11.7 µM | 11.4 µM | 27.5 µM | 2.78 µM | 9.61 µM | 1.87 µM | 5.63 µM | 3.37 µM | 25.7 µM | 1.63 µM | 9.88 µM
Nc1nc(N)c(N=O)c(OCC2CCCCC2)n1 | 9.71 µM | > 100 µM | – | > 100 µM and 76.5 µM | 6.03 µM | > 75.5 µM | 3.46 µM | > 100 µM | 3.69 µM | 24.1 µM and 24.5 µM | 15.9 µM | 57 µM and 34.5 µM | 2.25 µM | 8.41 µM and 59.2 µM | 4.77 µM | > 100 µM | 17.2 µM | > 100 µM and 57.8 µM | 3.06 µM and 7.32 µM | 36.8 µM and 52.7 µM
CSC1(SC2=NCCN2)SC2(NCCN2)S1 | – | 33.4 µM | – | 34.4 µM | – | 44.6 µM | – | 12.8 µM | – | 35.7 µM | – | 18.6 µM | – | 28.4 µM | – | 25.7 µM | – | 39.6 µM | – | 34.3 µM
COc1ccc2c(c1)C(C)Cc1c(Cl)nc(C)nc1N2C (stereo unspecified) | 3.48 µM | 37.2 µM | 2.22 µM | 36.3 µM | 4.94 µM | > 100 µM | 0.791 µM | 32.7 µM | 4.41 µM | > 100 µM | 4.55 µM | 38.8 µM | 3.95 µM | 29.5 µM | 3.12 µM | 23.9 µM | 5.91 µM | > 100 µM | 12.4 µM | 37.8 µM
CCCc1cc(=O)n2c(C(=O)Nc3ccccc3OC)c(C(=O)Nc3ccc(F)cc3)sc2n1 | 37.1 µM | > 160 µM | 2.21 µM | 13.9 µM | 5.03 µM | 15.3 µM | 14.6 µM | 115 µM | 21.5 µM | 46.2 µM | 26 µM | 64.3 µM | 1.43 µM | 4.73 µM | 5.18 µM | 38.1 µM | 69.3 µM | > 160 µM | 59.5 µM | > 160 µM
CC(C)(C#N)c1cc(C(=O)Nc2cc(Nc3ncccc3-c3ncnc4nc[nH]c34)ccc2F)cc(C(F)(F)F)c1 | 0.514 µM | > 4.14 µM | 0.463 µM | > 10 µM | 1.3 µM | > 2.93 µM | – | > 4.6 µM | 0.521 µM | > 2.59 µM | – | > 4.17 µM | 0.255 µM | 1.78 µM | 0.38 µM | 2.41 µM | 0.224 µM | > 2.86 µM | 0.0648 µM | 0.234 µM
Nc1n[nH]c2ccc([C@@H]3Nc4ccc5[nH]ncc5c4[C@H]4C5C=CC(C5)[C@@H]34)cc12 (stereo partly specified) | 0.446 µM | 14 µM | 0.52 µM | 20.7 µM | 1.76 µM | > 90.7 µM | 0.14 µM | 19 µM | 0.497 µM | 24.9 µM | 12 µM | > 100 µM | 1.46 µM | 10.7 µM | 0.443 µM | 11.8 µM | 0.586 µM | 30.3 µM | 0.655 µM | 35.3 µM
CC(C)c1ccc(Nc2nccc(-c3cnn4ncccc34)n2)cc1 | 0.483 µM | > 7 µM | 0.563 µM | 2.59 µM | 0.604 µM | 2.63 µM | 0.0653 µM | – | 0.502 µM | > 19.5 µM | 0.59 µM | 3.17 µM | 0.503 µM | 1.59 µM | 0.209 µM | > 7.75 µM | 0.44 µM | > 12.3 µM | 1.04 µM | 4.01 µM
O=C(CCCSc1nc(-c2ccccc2)cc(-c2ccc(Cl)cc2)n1)NO | 2.44 µM | 10.6 µM | 1.04 µM | 17.4 µM | 1.12 µM | 14.4 µM | 2.29 µM | 12.4 µM | 2.08 µM | 11.7 µM | 0.773 µM | 12.3 µM | 2.29 µM | 8.26 µM | 0.414 µM | 1.87 µM | 2.12 µM | 8.48 µM | 2.7 µM | 12.1 µM
Clc1nc(Cl)c(-c2ccccc2)c(Cl)n1 | – | 12 µM | – | 33 µM | – | 6.55 µM | – | 9.45 µM | – | 14 µM | – | 22.2 µM | – | 11.4 µM | – | 3.73 µM | – | 9.88 µM | – | 4.38 µM
